From ChEMBL document CHEMBL3994620, “Synthesis and antioxidant activity of a procyanidin B3 analogue” (Bioorg Med Chem Lett, 2017)

Test: Antioxidant activity assessed as second order rate constant for galvinoxyl radical scavenging activity by UV-vis spectrophotometry
Assay type: functional

Row | SMILES | K
1 | Oc1cc(O)c2c(c1)O[C@H](c1ccc(O)c(O)c1)[C@@H](O)[C@@H]2c1c(O)cc(O)c2c1O[C@H](c1ccc(O)c(O)c1)[C@@H](O)C2 | 1 ×10² /M/s
2 | CC1(C)O[C@H]2Cc3c(O)cc(O)c([C@@H]4c5c(O)cc(O)cc5O[C@H](c5ccc(O)c(O)c5)[C@H]4O)c3O[C@@H]2c2cc(O)c(O)cc21 | 1.89 ×10² /M/s
3 | Oc1cc(O)c2c(c1)O[C@H](c1ccc(O)c(O)c1)[C@@H](O)C2 | 26 M⁻¹ s⁻¹
